Publication PMC9194936, “Preclinical Activity and Pharmacokinetic/Pharmacodynamic Relationship for a Series of Novel Benzenesulfonamide Perforin Inhibitors” (ACS Pharmacology & Translational Science, 2022)
Marks after values point to notes of the source that are not given here.

Key:
[1] = Plasma protein binding by equilibrium dialysis; type: in vitro ADME, mouse
Description: The plasma protein binding of the compounds was determined by equilibrium dialysis (12–14 kDa cutoff membrane). […] The dialysis unit was covered with an adhesive sealing film to prevent evaporation of the contents and placed in an incubator (Innova-42, New Brunswick Scientific) maintained at 37 °C with gentle mixing (80 rpm) for 6 h. Next, a 10 μL sample was aspirated from the plasma side and mixed with 90 μL of fresh PBS, whereas a 90 μL sample from the buffer side was removed and combined with 10 μL of drug-free plasma to ensure uniform matrix composition. Ice-cold acetonitrile (300 μL; Merck Millipore, Burlington, MA) containing internal standard (a BZS analogue of similar chemical structure) was added to each sample to precipitate protein and was vortexed for 2 min and centrifuged for 5 min at 13 000 rpm. The supernatant was diluted with 0.01% formic acid in ultrapure water (Milli-Q) (1:1) and quantitated by liquid chromatography–tandem mass spectrometry (LC-MS/MS). Each compound was tested in triplicate alongside control compounds known to have low (e.g., lidocaine) and high (e.g., amitriptyline) plasma protein binding. For media binding studies, the same assay was used, but RPMI with 0.1% BSA was used in place of CD1 mouse plasma.

[2] = Binding to proteins in KHYG-1 cell media (RPMI with 0.1% BSA) by equilibrium dialysis; type: in vitro ADME; conditions: bovine, pH 7.4, read-out: free fraction in the KHYG-1 cell media
[3] = Splenocyte cellularity and tolerability in the bone marrow transfer assay; type: in vivo; conditions: all dose levels (100, 75 and 50% of MTD), qd x 4
Description: For the determination of splenic cell counts, mouse spleens were harvested and the cells dispersed in media by gentle teasing and then centrifuged at 500g. Cell pellets were resuspended in media and total spleen cell counts were performed manually using a standard hemocytometer and light microscopy. […] Peripheral blood cell counts and spleen white blood cell counts were determined on a Beckman Coulter Ac.T diff hematology analyzer.

[4] = Bodyweight, spleen and blood cellularity in unmanipulated naive mice; type: in vivo, mouse
From the text: Splenic atrophy may occur as a direct treatment-related effect or indirectly subsequent to bodyweight loss.[32] Spleen size does normally vary so is not a reliable indicator of splenic dysfunction;[33] however, severe atrophy can prevent the normal function of the spleen and indicate systemic immunotoxicity.[34] Given that reduced splenic cellularity had not been noted in other in vivo mouse disease models using 1,[14],[15] we further investigated the impact of 1 on mouse spleen using extended dosing strategies on unmanipulated naïve mice and assessing changes in bodyweight, splenocyte, and blood cell counts and leukocyte frequencies in the spleen. The mice were treated with either 100 or 150 mg/kg of 1 given by intraperitoneal injection twice daily for up to 7 days.
For the determination of splenic cell counts, mouse spleens were harvested and the cells dispersed in media by gentle teasing and then centrifuged at 500g. Cell pellets were resuspended in media and total spleen cell counts were performed manually using a standard hemocytometer and light microscopy. Lymphocyte subsets were quantified by flow cytometry using the following antibody reagents: BV605 rat anti-mouse CD3 clone 17A2 (#564009, BD Biosciences); BV786 rat anti-mouse CD4 clone RM4–5 (#563727, BD Biosciences); BV711 rat anti-mouse CD8a clone 53-6.7 (#100748, BioLegend); PE-Cy7 mouse anti-mouse NK1.1 clone PK136 mouse (#552878, BD Biosciences); APC rat anti-mouse CD19 clone 1D3 (#550992, BD Biosciences). Peripheral blood cell counts and spleen white blood cell counts were determined on a Beckman Coulter Ac.T diff hematology analyzer.

[5] = One-compartment pharmacokinetic model simulations; design: species or system mouse
Description: For determination of plasma concentrations of 1, C57BL/6 mice were treated with a single dose of 1 at four different dose levels (160, 120, 80, and 10 mg/kg) and blood samples were collected at multiple timepoints after dosing. Overall, the pharmacokinetics followed a dose-dependent relationship that was close to linear (Figure 3A). […] To confirm the accuracy of the simulations, C57BL/6 mice were treated intraperitoneally with 80, 120, or 160 mg/kg dose of 1 and the resulting plasma concentrations were evaluated at multiple time points within a 24 h period after one (0 h), two (0, 18 h) or three (0, 9 h, 18 h) doses.
Given the high concentrations required, there is potential for saturation of plasma protein binding to occur, where small dose increments could cause large increases in unbound concentrations.[35]
Test samples were diluted up to 100-fold in blank plasma as necessary and quantitated against a calibration curve of known analyte concentrations ranging from 3 nM to 30 μM in an appropriate matrix and quality controls at 0.03, 0.3, 3, and 30 μM. Pharmacokinetic parameters were evaluated using noncompartmental analysis and pharmacokinetic simulations using one-compartment analysis on Phoenix WinNonlin version 6.2 (Certara, Princeton, NJ). Multiple-dose simulations were generated from parameters derived from single-dose simulations.

[6] = design: method as in PMID 28582670; AUC: concentration or dose not given beside the values; conditions: mouse plasma; cited from earlier work
[7] = KHYG-1 viability (Trypan Blue exclusion); type: cell-based; conditions: human, KHYG-1 NK cells, at 20 μM
Description: The toxicity of perforin inhibitors toward KHYG-1 NK cells was determined as described previously.[14] KHYG-1 cells were preincubated with compounds in the same manner as the KHYG-1 cytotoxicity assay prior to the addition of RPMI with 0.1% BSA and incubation at 37 °C for 4 h. The cells were then washed and resuspended in complete medium and incubated for a further 24 h at 37 °C, after which cell viability was assessed by Trypan Blue (Thermo Fisher Scientific) exclusion.

CN1Cc2cc(-c3ccc(-c4cncc(NS(=O)(=O)c5ccccc5[N+](=O)[O-])c4)s3)ccc2C1=O [Compound 1, N-{5-[5-(2-methyl-1-oxo-2,3-dihydro-1H-isoindol-5-yl)-2-thienyl]-3-pyridinyl}-2-nitrobenzenesulfonamide]
fraction unbound at 6 h ([1]; CD1, mouse, pH 7.4, without saturation of plasma protein binding (99.8% protein-bound), read-out: free fraction in plasma): 0.002
total plasma concentration required for unbound IC90 at 6 h ([1]; CD1, mouse, pooled mouse plasma, pH 7.4, at a free fraction of 0.002, read-out: total plasma concentrations required to achieve unbound plasma concentrations equivalent to the in vitro unbound IC90): ~350 µM
fraction unbound at 6 h, 10 μM ([1]; CD1, pH 7.4, mouse plasma, 10 μM, equilibrium dialysis): 0.002
fraction unbound at 6 h, 10 μM ([1]; CD1, pooled mouse plasma, pH 7.4, concentration 10 μM, mouse plasma): 0.002
fraction unbound at 6 h, 100 μM ([1]; CD1, pooled mouse plasma, pH 7.4, concentration 100 μM, mouse plasma): 0.0006
fraction unbound at 6 h, 500 μM ([1]; CD1, pooled mouse plasma, pH 7.4, concentration 500 μM, mouse plasma): 0.0019
fraction unbound at 6 h, 1000 μM ([1]; CD1, pooled mouse plasma, pH 7.4, concentration 1000 μM, mouse plasma): 0.0038
increase in free drug concentrations ([1]; between 500 and 1000 μM): 4 fold
unbound concentration ([1]; concentration 10 μM, mouse plasma): 20 nM
unbound concentration ([1]; concentration 100 μM, mouse plasma): 60 nM
unbound concentration ([1]; concentration 500 μM, mouse plasma): 950 nM
unbound concentration ([1]; concentration 1000 μM, mouse plasma): 3800 nM
fraction unbound at 6 h, 10 μM [2]: 0.144
reductions in splenocyte number [3]: only minor reductions
tolerability [3]: well tolerated
platelets ([4]; 100 mg/kg i.p. bid ×7, n = 2): 1041.5 ± 0.3 ^b ×10^9/L
red blood cell ([4]; 100 mg/kg i.p. bid ×7, n = 2): 9.9 ± 0.3 ^b ×10^12/L
white blood cell ([4]; 100 mg/kg i.p. bid ×7, n = 2): 6.1 ± 2.0 ^b ×10^9/L
% change in bodyweight ([4]; 100 mg/kg i.p. bid ×7, n = 6): –5 ± 2%
spleen: % CD3+CD4+ ([4]; 100 mg/kg i.p. bid ×7, n = 6): 7.9 ± 3.3%
spleen: % CD3+CD8+ ([4]; 100 mg/kg i.p. bid ×7, n = 6): 9.1 ± 2.6%
spleen: % CD19+ ([4]; 100 mg/kg i.p. bid ×7, n = 6): 45.4 ± 10.1%
spleen: % NK1.1+ ([4]; 100 mg/kg i.p. bid ×7, n = 6): 2.3 ± 0.6%
spleen: total cell count ([4]; 100 mg/kg i.p. bid ×7, n = 6): 0.39 ± 0.08 ×10^8
% change in bodyweight ([4]; 150 mg/kg i.p. bid ×3, n = 3): –5.1 ± 5.9%
platelets ([4]; 150 mg/kg i.p. bid ×3, n = 3): 1163 ± 149 ×10^9/L
red blood cell ([4]; 150 mg/kg i.p. bid ×3, n = 3): 9.5 ± 0.9 ×10^12/L
spleen: % CD3+CD4+ ([4]; 150 mg/kg i.p. bid ×3, n = 3): 5.6 ± 3.8%
spleen: % CD3+CD8+ ([4]; 150 mg/kg i.p. bid ×3, n = 3): 10.6 ± 3.4%
spleen: % CD19+ ([4]; 150 mg/kg i.p. bid ×3, n = 3): 41.4 ± 5.3%
spleen: % NK1.1+ ([4]; 150 mg/kg i.p. bid ×3, n = 3): 5.0 ± 0.7%
spleen: total cell count ([4]; 150 mg/kg i.p. bid ×3, n = 3): 0.41 ± 0.46 ×10^8
white blood cell ([4]; 150 mg/kg i.p. bid ×3, n = 3): 6.0 ± 0.4 ×10^9/L
weight loss, change in spleen or blood cell counts, reduction in splenic T, B or NK cells vs vehicle ([4]; 100 or 150 mg/kg i.p. twice daily for up to 7 days): Neither dosing schedule resulted in weight loss, change in spleen or blood cell counts or any reduction
duration that plasma concentration achieved 350 μM ([5]; 80 mg/kg three-dose schedule): 14.9 h
duration that plasma concentration achieved 350 μM ([5]; two doses of 120 mg/kg): 12.0 h
duration that plasma concentration achieved 350 μM ([5]; two doses of 160 mg/kg): 13.4 h
AUC [6]: 415 µM·h
Cmax [6]: 105000 nM

O=C1NCc2ccc(-c3ccc(-c4cncc(NS(=O)(=O)c5ccc(F)cc5F)c4)s3)cc21 [Compound 7, 2,4-difluoro-N-{5-[5-(3-oxo-2,3-dihydro-1H-isoindol-5-yl)-2-thienyl]-3-pyridinyl}benzenesulfonamide]
viability at 24 h, 20 µM [7]: 96 ± 6%
